Experimental data as given in ChEMBL document CHEMBL5236544, “Furazans in Medicinal Chemistry” (J Med Chem, 2021).
pEC50, pIC50: −log10 of the molar value.

Columns and labels:
[1] = molecular target: Cyclin-dependent kinase 2 (Homo sapiens, UniProt P24941); experiment: Inhibition of CDK-2 (unknown origin)
CHO = experiment: Antiproliferative activity against CHO cells assessed as reduction in cell proliferation by MTT assay; assay type: functional, cell-based; details: Cricetulus griseus

- pIC50 [1]: < 3.60
SMILES: Nc1nonc1-n1nnc(-c2nnc(-c3ccncc3)[nH]2)c1CN1CCCCC1
- pEC50 (CHO): 5.73
